One series concerns the target Cytochrome P450 2D6 (Homo sapiens, UniProt P10635). Description: Inhibition of CYP2D6 at 10 uM. It is filed as ADME.
Series [1] is described as follows: Protein binding in plasma. To be noted: read-out: PPB. It is filed as ADME, cell-free.
In the next series the target is CYP3A4 (Homo sapiens, UniProt P08684). Description: Inhibition of CYP3A4 in human liver microsomes using NADPH at 10 uM by LC-MS/MS analysis relative to control. It is filed as ADME, Microsome. Background: Microsomes from liver hold many membrane-bound enzymes, among them those of drug oxidation.
CYP3A4, sequence (P08684 whole entry): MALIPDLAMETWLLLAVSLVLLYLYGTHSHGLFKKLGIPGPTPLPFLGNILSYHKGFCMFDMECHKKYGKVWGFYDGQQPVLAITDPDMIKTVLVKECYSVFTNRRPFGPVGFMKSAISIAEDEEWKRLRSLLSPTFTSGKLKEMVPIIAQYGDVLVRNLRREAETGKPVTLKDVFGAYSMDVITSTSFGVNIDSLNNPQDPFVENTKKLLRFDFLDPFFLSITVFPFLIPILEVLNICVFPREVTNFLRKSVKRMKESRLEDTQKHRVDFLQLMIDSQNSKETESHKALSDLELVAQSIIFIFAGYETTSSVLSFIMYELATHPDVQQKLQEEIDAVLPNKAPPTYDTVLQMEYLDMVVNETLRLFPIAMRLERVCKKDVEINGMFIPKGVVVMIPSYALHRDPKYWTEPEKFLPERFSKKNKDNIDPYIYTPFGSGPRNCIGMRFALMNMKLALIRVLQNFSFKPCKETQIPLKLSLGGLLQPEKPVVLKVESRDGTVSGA
Series [2] addresses T1, 11-beta-hydroxysteroid dehydrogenase 1 (Homo sapiens, UniProt P28845). Description: Inhibition of human 11beta HSD1 expressed in HEK293 cells assessed as assessed as inhibition of [1,2-(n)3H]cortisone to [3H]-cortisol after 60 mins by scintillation proximity assay. It is filed as cell-based. (In general: SPA uses beads or plates that emit light when radiolabelled molecules are held near them.)
Target sequence in this assay (P28845 whole entry): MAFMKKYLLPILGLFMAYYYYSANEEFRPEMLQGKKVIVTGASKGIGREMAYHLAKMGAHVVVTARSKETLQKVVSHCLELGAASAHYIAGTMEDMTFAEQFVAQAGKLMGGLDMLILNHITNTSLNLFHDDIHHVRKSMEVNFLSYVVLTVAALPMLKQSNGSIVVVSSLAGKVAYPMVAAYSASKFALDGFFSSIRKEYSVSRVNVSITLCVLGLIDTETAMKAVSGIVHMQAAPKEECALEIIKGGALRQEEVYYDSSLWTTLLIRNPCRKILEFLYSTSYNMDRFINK

For a further series, the species on record is Homo sapiens. Description: Selectivity ratio of IC50 for human 11beta HSD2 to IC50 for human 11beta HSD1.
The target in series [3] is T1, 11-beta-hydroxysteroid dehydrogenase 1. Description: Inhibition of human 11beta HSD1 expressed in HEK293 cells assessed as assessed as inhibition of [1,2-(n)3H]cortisone to [3H]-cortisol at 100 uM after 60 mins by scintillation proximity assay.
Target sequence in this assay (P28845 whole entry, looked up): as the sequence (P28845 whole entry) above
For series [4], the target named is T2, 11-beta-hydroxysteroid dehydrogenase type 2 (Homo sapiens, UniProt P80365).
T2 sequence (P80365 whole entry): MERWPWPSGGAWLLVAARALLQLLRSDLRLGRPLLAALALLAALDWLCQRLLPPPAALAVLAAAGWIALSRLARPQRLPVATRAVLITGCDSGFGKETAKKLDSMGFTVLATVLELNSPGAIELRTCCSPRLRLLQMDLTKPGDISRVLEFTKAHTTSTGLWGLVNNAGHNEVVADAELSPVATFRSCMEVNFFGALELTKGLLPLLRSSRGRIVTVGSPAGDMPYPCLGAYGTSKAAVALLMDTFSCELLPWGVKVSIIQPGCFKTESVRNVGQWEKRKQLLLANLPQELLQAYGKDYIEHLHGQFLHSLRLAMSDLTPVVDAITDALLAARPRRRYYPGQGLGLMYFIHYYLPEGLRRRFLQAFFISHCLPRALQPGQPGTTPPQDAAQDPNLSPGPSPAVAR
The experiment in a line: Inhibition of human 11beta HSD2.

Here are results for nine molecules from ChEMBL document CHEMBL1833956, “Potent and novel 11β-HSD1 inhibitors identified from shape and docking based virtual screening” (Bioorg Med Chem Lett, 2011).

As usually defined, the inhibition is the drop in the measured response relative to a control, in per cent. For orientation: IC50 means the concentration that inhibits the measured activity by half.

Cytochrome P450 2D6, sequence (P10635 whole entry): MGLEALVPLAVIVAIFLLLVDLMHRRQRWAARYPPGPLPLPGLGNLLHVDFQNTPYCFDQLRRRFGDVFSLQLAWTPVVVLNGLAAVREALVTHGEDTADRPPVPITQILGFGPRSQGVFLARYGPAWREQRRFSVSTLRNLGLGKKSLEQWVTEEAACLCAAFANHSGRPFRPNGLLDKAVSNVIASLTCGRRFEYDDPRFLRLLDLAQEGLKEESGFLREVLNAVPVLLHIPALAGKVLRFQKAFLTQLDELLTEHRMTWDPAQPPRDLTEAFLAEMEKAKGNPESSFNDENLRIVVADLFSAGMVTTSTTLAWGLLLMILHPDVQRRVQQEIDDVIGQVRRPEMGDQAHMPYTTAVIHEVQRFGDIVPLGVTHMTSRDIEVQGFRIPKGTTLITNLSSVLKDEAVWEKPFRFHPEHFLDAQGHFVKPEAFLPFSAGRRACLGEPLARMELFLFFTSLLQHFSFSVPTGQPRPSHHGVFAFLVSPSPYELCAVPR

Turning to `Fc1cccc(Cl)c1CSc1nnc(-c2ccco2)n1-c1ccc(OCc2ccccc2)cc1`, the “inhibition (INH)” value against Cytochrome P450 2D6 is reported as “Not Active”. Besides, the fraction unbound in series [1] is not above 0.05. The inhibition at 10 µM against CYP3A4 was found to be 73%.
Turning to `O=S(=O)(c1ccc2ccccc2c1)N1CCN(c2ncc(C(F)(F)F)cc2Cl)CC1`, at Cytochrome P450 2D6, the “inhibition (INH)” value was “Not Active”. Further, in series [1], the fraction unbound was not above 0.1. Further, testing at 10 µM at CYP3A4 gave an inhibition of 13%.
With `CCN(CC)C(=O)Cc1csc(NS(=O)(=O)c2cccc(Cl)c2C)n1`, the IC50 in series [2] stood at 28.4 nM.
As to `N#C/C(=C\c1ccc2c(c1)CCO2)S(=O)(=O)c1ccc(Cl)cc1Cl`, at Cytochrome P450 2D6, the “inhibition (INH)” value is given as “Not Active”. The fraction unbound in series [1] is not above 0.05. The molecule further gave an inhibition at 10 µM at CYP3A4 of 26%.
Taken in the same sequence, the figures for `O=S(=O)(c1ccc2ccccc2c1)N1CC=C(c2ccccc2)CC1` were “Not Active”, not above 0.05 and 14%.
For the molecule `CN(Cc1ccccc1)S(=O)(=O)c1ccc(Oc2cccc(Cl)c2C#N)cc1`, the IC50 in series [2] was determined as 41.3 nM. In addition, the “inhibition (INH)” value at Cytochrome P450 2D6 is on record as “Not Active”. Moreover, the fraction unbound in series [1] was not above 0.05. Testing at 10 µM against CYP3A4 gave an inhibition of 17%. Also, in the series listed under Homo sapiens, the Ratio IC50 worked out at 2420. The inhibition in series [3] was less than 50%.
For the molecule `O=S(=O)(Nc1cccc(CCc2ccccn2)c1)c1cc(Cl)ccc1Cl`, the IC50 in series [2] was 102 nM. Also, the “inhibition (INH)” value against Cytochrome P450 2D6 is reported as “Active”. Also, in series [1], the fraction unbound was not above 0.1. In addition, on CYP3A4, testing at 10 µM gave an inhibition of 82%.
Turning to `O=S(=O)(c1ccc2ccccc2c1)N1CCCN(Cc2c(F)cccc2Cl)CC1`, the “inhibition (INH)” value against Cytochrome P450 2D6 is listed as “Not Active”. The fraction unbound in series [1] was not above 0.1. The inhibition at 10 µM against CYP3A4 was 26%.
Take `O=C(CSc1nnc(-c2ccccc2)c(-c2ccccc2)n1)N1CCc2ccccc21`: the IC50 worked out at 58.1 nM in series [2] and 8900 nM in series [4]. Besides, the “inhibition (INH)” value against Cytochrome P450 2D6 was “Active”. In addition, in series [1], the fraction unbound is not above 0.05. The same molecule showed an inhibition at 10 µM against CYP3A4 of 36%. Further, the Ratio IC50 in the series listed under Homo sapiens amounted to 200.
